As a reminder, the IC50 is the concentration that gives 50% inhibition. The term MIC denotes the lowest concentration found to suppress growth. High values mean a need for much substance, low ones inhibition by little substance.

In brackets after ≈: the same amount, converted by molar mass. Like-named read-outs stand apart in the source and are kept apart here.

In experiment [1] the test system is S30 extracts derived from all three Gram-positives. The experiment is described as follows: In vitro coupled T/T assay, for all three Gram-positive S30 extracts. It counts as biochemical, S. aureus, S. pneumoniae, E. faecalis. The note with it: at high concentrations.
Description: To validate the in vitro coupled T/T assay for screening of potential inhibitors of transcription and translation several antibiotics of known mode of action were tested.
Experiment [2] concerns S30 extracts from E. faecalis 27263. The experiment can be described thus: Gram-positive in vitro coupled transcription/translation (T/T) assay, E. faecalis S30 extract. It counts as biochemical. On the procedure: E. faecalis 26273 was grown overnight in 250 ml BHI medium containing 2% bovine serum at 37° C. under microaerophilic conditions. The overnight culture was used to inoculate 4.8 1 BHI medium, cells were incubated at 37° C. under microaerophilic conditions with agitation (170 rpm) until an OD600 nm of ˜1.6 was reached. Preparation of S30 extracts was done as described for S. aureus with the following exceptions. Cells were harvested and washed at 7000×g at 4° C. for 12 min and resuspended in 100 ml S30-buffer B. For cell lysis 15 mg lysozyme resuspended in 1 ml S30-buffer B were added and incubated for 2 h at 37° C. with agitation. To complete cell lysis extracts were passed once through a French Press at 600 psi.
(§1) The final assay volume was 59 μl. Inhibitor (3 μl dissolved in 10% DMSO), plasmid DNA (10 μl of optimal concentration in water pH 8.0) and 46 μl S30 extract [optimal concentration in 23 μl premixed with 23 μl incubation buffer (0.5 M potassium acetate, 87.5 mM Tris/acetate pH 8.0, 67.5 mM ammonium acetate, 50 μg/ml folinic acid, 5 mM DTT, 87.5 mg/ml polyethylene glycol 8000, 5 mM ATP; 1.25 mM of each CTP, GTP and UTP; 0.02 mM amino acids, 50 mM phosphoenolpyruvate trisodium salt, 2.5 mM cyclic AMP, 250 μg of each E. coli tRNA/ml) were added and incubated at 30° C. for 1 h. When using pT7-FF as a template 0.05 μl or 0.1 μl (50 U/μl) T7-RNA-Polymerase (Gibco BRL) were added to the S30 extracts used in the assay. Newly synthesized luciferase was detected by measuring bioluminescence for 60 s in a luininometer after the addition of 50 μl substrate buffer containing luciferine (20 mM Tricine/Cl pH 7.8, 2.67 mM MgSO4, 0.1 mM EDTA, 33.3 mM DTT, 0.27 mM Coenzyme A, 0.47 mM luciferine, 0.53 mM ATP).
(§2) The shape of the inhibition profiles is more or less similar for these compounds, in case of Streptomycin the lower IC50 value for S. aureus 133 compared to E. faecalis 27263 can be seen. templates pXyl-FF and pT7-FF with S30 extracts of the indicated bacterial strains. […] MIC (minimal inhibitory concentration) values were determined as described in Example 4. Numbers in square brackets relate to the unit in square brackets as given in the column heading.

Experiment [3] deals with S30 extracts from S. aureus 133. The experiment can be described thus: Gram-positive in vitro coupled transcription/translation (T/T) assay, S. aureus S30 extract. In kind it is biochemical. How it is done: A procedure similar to the preparation of S30 extracts described by Murray et. al. (2) was used for S. aureus. Brain heart infusion (BHI) medium (6 l) was inoculated with 250 ml overnight culture of S. aureus 133 grown in BHI at 37° C. with agitation (170 rpm). Cells were cultured at 37° C. until an OD595nm of 2.5 was reached prior to centrifugation at 6000×g for 15 min at 4° C. Pellets were washed once with 500 ml cold S30-buffer A (10 mM Tris-acetate pH 8.0, 14 mM Mg-acetate, 1 mM DTT, 1 M KCl) and once with 250 ml of cold S30-buffer A containing 50 mM KCl. Pellets were frozen for 1 h at −20° C. or overnight at −70° C., thawed on ice and resuspended to a final volume of 99 ml buffer B (10 mM Tris-acetate pH 8.0, 20 mM Mg-acetate, 1 mM DTT, 50 mM KCl). A 1.5 ml aliquote of lysostaphin (0.8 mg/ml) in buffer B was added to each of three centrifuge tubes and 33 ml of the cell suspension were added. Samples were incubated at 37° C. for 1 h with gentle agitation prior to the addition of 150 μl 0.5 M DTT. Lysed cells were centrifuged for 30 min at 30,000×g at 4° C. and the resulting pellet was washed once with 33 ml S30-buffer B. The pooled supernatants were recentrifuged at 30,000×g for 30 min at 4° C. 100 ml of the supernatant were incubated with 25 ml preincubation buffer (670 mM Tris-acetate pH 8.0, 20 mM Mg-acetate, 7 mM Na3-PEP, 7 mM DTT, 5.5 mM ATP, 70 μM amino acids complete [Promega], 75 μg pyruvate kinase [Sigma]/ml) for 30 min at 37° C. to translate mRNAs. The preincubated supernatants were dialysed at 4° C. against 2 l of 10 mM Tris-acetate pH 8.0, 14 mM Mg-acetate, 1 mM DTT, 60 mM KCl with one buffer change using a Spectra-Por dialysis bag with a molecular weight cutoff of 3,500. The dialysate was gently concentrated by covering the dialysis bag with polyethylene glycol 8,000 powder (Sigma) at 4° C. to a protein concentration of ˜10 mg/ml. The resulting S30 extracts were flash frozen and stored in aliquots at −70° C.
as §1
MIC (minimal inhibitory concentration) values were determined as described in Example 4. Numbers in square brackets relate to the unit in square brackets as given in the column heading.

For another experiment, the system named is E. faecalis 27263. The experiment is described as follows: Minimum inhibitory concentration, micro broth dilution. In kind it is cell-based. The settings on record: Enterococcus faecalis, 27263, 24 h. How it is done: (§3) MIC determinations were performed using the micro broth dilution method with an inoculum of 5×10^5 cfu/ml in BHI medium. Growth was read after 24 h of incubation at 37° C. Test compounds were dissolved in dimethyl sulfoxide and diluted to a concentration not higher than 2.5% dimethyl sulfoxide. For S. pneumoniae 1707/4 and E. faecalis 27263 16% bovine serum were added and incubated under microaerophilic conditions.
On the technique in general: Dilution methods test growth across graded concentrations, often in twofold steps.

The next experiment has as its system S. aureus 133. The description is as above. In kind it is cell-based. The settings on record: Staphylococcus aureus, 133, 24 h. How it is done: as §3
The next experiment concerns S. pneumoniae 1707/4. Described as above. The note with it: Streptococcus pneumoniae, 1707/4, 24 h. It counts as cell-based. On the procedure:
as §3

Experiment [4] deals with S30 extracts from S. pneumoniae 1707/4. The experiment can be described thus: Gram-positive in vitro coupled transcription/translation (T/T) assay, S. pneumoniae S30 extract. In kind it is biochemical. On the procedure: S. pneumoniae 1707/4 was grown overnight at 37° C. on agar plates containing 5% sheep blood under microaerophilic conditions. Cells were collected and inoculated into 4.8 l of BHI medium containing 5% bovine serum prior to cultivation at 37° C. under microaerophilic conditions for 5 h. S30 extracts were prepared as described for S. aureus 133 with some modifications. Cells were harvested and washed by centrifugation at 20,000×g for 15 min. The resulting cell pellet was resuspended in 20 ml buffer B, 3 mg lysozyme were added, incubated for 40 min at 37° C. prior to the addition of 75 μl 0.5 M DTT. The S30 sediment was washed with 8 ml buffer B and 7 ml preincubation buffer were added to the pooled supernatants.
as §1, §2

[5] abbreviates: template pT7-FF with T7 RNA polymerase, read-out: IC50.
Where [6] appears, read: template pT7-FF, value in square brackets.
The mark [7] stands for this setting: template pXyl-FF, value in square brackets.

Regarding `CN[C@H](CC(C)C)C(=O)N[C@H]1C(=O)N[C@@H](CC(N)=O)C(=O)N[C@H]2C(=O)N[C@H]3C(=O)N[C@H](C(=O)N[C@H](C(=O)O)c4cc(O)cc(O)c4-c4cc3ccc4O)[C@H](O)c3ccc(c(Cl)c3)Oc3cc2cc(c3O[C@@H]2O[C@H](CO)[C@@H](O)[C@H](O)[C@H]2O[C@H]2C[C@](C)(N)[C@H](O)[C@H](C)O2)Oc2ccc(cc2Cl)[C@H]1O` [Vancomycin], the “inhibition in the in vitro coupled T/T assay” value in experiment [1] is “no or only weak inhibition”. Also, the IC50 in experiment [2] (setting [5]) was greater than 34 µM; in experiment [2] (setting [6]) it was greater than 50 µg/mL; in experiment [2] (template pXyl-FF, read-out: IC50), greater than 34 µM; in experiment [2] (setting [7]), greater than 50 µg/mL; in experiment [3] (setting [5]) it was greater than 34 µM; in experiment [3] (setting [6]), greater than 50 µg/mL. In addition, the half-maximal inhibitory concentration (IC50) in experiment [3] (template pXyl-FF, 50% inhibition of in vitro translation of luciferase, read-out: IC50) is greater than 67 µM; in experiment [3] (setting [7]) it was greater than 100 µg/mL; in experiment [4] (setting [5]), greater than 34 µM; in experiment [4] (setting [6]) it was greater than 50 µg/mL. Further, the MIC was 2 µg/mL (≈ 1.38 µM) in the experiment on E. faecalis 27263, 0.25 µg/mL (≈ 0.173 µM) against S. aureus 133 and 0.25 µg/mL (≈ 0.173 µM) in the experiment with S. pneumoniae 1707/4.
